# Assay results reported in ChEMBL document CHEMBL3885861, “Open TG-GATES”.
# Organism: Rattus norvegicus
# Assay: Open TG-GATES - Regimen: Single
# Type: toxicity, organism-based, Sprague-Dawley
# Parameters: regimen Single, gender Male, age 6 weeks
# Settings: in vivo, po, 0 mg/kg, route gavage, dose level Control; for APTT / Bas / Eos / Fbg / Hb / Ht / Lym / MCH / MCHC / MCV / Mono / Neu / PT / Plat / RBC / Ret / WBC: tissue Blood; for KIDNEY_L / KIDNEY_R / KIDNEY_TOTAL: tissue Kidney; for LIVER: tissue Liver; for A/G / ALP / ALT / AST / BUN / CRE / Ca / Cl / DBIL / GLC / IP / K / LDH / Na / PL / RALB / TBIL / TC / TG / TP / gamma-GTP: tissue Plasma
smiles,measurement,setting,value
CN(C)[C@@H]1C(O)=C(C(N)=O)C(=O)[C@@]2(O)C(O)=C3C(=O)c4c(O)cccc4[C@@](C)(O)[C@H]3C[C@@H]12 [TETRACYCLINE],TERMINAL_BW,3 h,187 g
same,APTT,3 h,16.4 s
same,Bas,3 h,0%
same,Eos,3 h,0.6%
same,Fbg,3 h,206.2 mg/dL
same,Hb,3 h,13.1 g/dL
same,Ht,3 h,39.4%
same,Lym,3 h,78.4%
same,MCH,3 h,22 pg
same,MCHC,3 h,33.1%
same,MCV,3 h,66.3 fL
same,Mono,3 h,8.6%
same,Neu,3 h,12.8%
same,PT,3 h,12.1 s
same,Plat,3 h,105.5 x10_4/uL
same,RBC,3 h,595.2 x10_4/ul
same,Ret,3 h,11%
same,WBC,3 h,95.1 x10_2/uL
same,KIDNEY_L,3 h,0.9 g
same,KIDNEY_R,3 h,0.9 g
same,KIDNEY_TOTAL,3 h,1.8 g
same,LIVER,3 h,9 g
same,A/G,3 h,2.2
same,ALP,3 h,813 IU/L
same,ALT,3 h,35.8 IU/L
same,AST,3 h,70.8 IU/L
same,BUN,3 h,12.6 mg/dL
same,CRE,3 h,0.5 mg/dL
same,Ca,3 h,11.1 mg/dL
same,Cl,3 h,103.6 meq/L
same,DBIL,3 h,0.02 mg/dL
same,GLC,3 h,187.8 mg/dL
same,IP,3 h,10.2 mg/dL
same,K,3 h,5.2 meq/L
same,LDH,3 h,87.6 IU/L
same,Na,3 h,137.6 meq/L
same,PL,3 h,143.2 mg/dL
same,RALB,3 h,3.7 g/dL
same,TBIL,3 h,0.4 mg/dL
same,TC,3 h,84 mg/dL
same,TG,3 h,42.4 mg/dL
same,TP,3 h,5.4 g/dL
same,gamma-GTP,3 h,1.4 IU/L
same,TERMINAL_BW,6 h,181.3 g
same,APTT,6 h,16.7 s
same,Bas,6 h,0%
same,Eos,6 h,0.8%
same,Fbg,6 h,200.2 mg/dL
same,Hb,6 h,13.1 g/dL
same,Ht,6 h,39.1%
same,Lym,6 h,81.6%
same,MCH,6 h,22 pg
same,MCHC,6 h,33.4%
same,MCV,6 h,65.9 fL
same,Mono,6 h,5.2%
same,Neu,6 h,13%
same,PT,6 h,12.3 s
same,Plat,6 h,101.8 x10_4/uL
same,RBC,6 h,593.8 x10_4/ul
same,Ret,6 h,10.7%
same,WBC,6 h,118.1 x10_2/uL
same,KIDNEY_L,6 h,0.8 g
same,KIDNEY_R,6 h,0.8 g
same,KIDNEY_TOTAL,6 h,1.7 g
same,LIVER,6 h,8.3 g
same,A/G,6 h,2.2
same,ALP,6 h,900.4 IU/L
same,ALT,6 h,36.2 IU/L
same,AST,6 h,68.8 IU/L
same,BUN,6 h,9 mg/dL
same,CRE,6 h,0.4 mg/dL
same,Ca,6 h,10.6 mg/dL
same,Cl,6 h,105.2 meq/L
same,DBIL,6 h,0.018 mg/dL
same,GLC,6 h,180 mg/dL
same,IP,6 h,10.5 mg/dL
same,K,6 h,5.2 meq/L
same,LDH,6 h,77.6 IU/L
same,Na,6 h,136.4 meq/L
same,PL,6 h,130.4 mg/dL
same,RALB,6 h,3.7 g/dL
same,TBIL,6 h,0.3 mg/dL
same,TC,6 h,76 mg/dL
same,TG,6 h,36 mg/dL
same,TP,6 h,5.3 g/dL
same,gamma-GTP,6 h,1.2 IU/L
same,TERMINAL_BW,9 h,179.4 g
same,APTT,9 h,16.9 s
same,Bas,9 h,0%
same,Eos,9 h,0.6%
same,Fbg,9 h,211.6 mg/dL
same,Hb,9 h,13.3 g/dL
same,Ht,9 h,40.3%
same,Lym,9 h,78%
same,MCH,9 h,21.7 pg
same,MCHC,9 h,33%
same,MCV,9 h,65.7 fL
same,Mono,9 h,6.2%
same,Neu,9 h,15.4%
same,PT,9 h,12.8 s
same,Plat,9 h,98.9 x10_4/uL
same,RBC,9 h,613.2 x10_4/ul
same,Ret,9 h,9.1%
same,WBC,9 h,72 x10_2/uL
same,KIDNEY_L,9 h,0.9 g
same,KIDNEY_R,9 h,0.9 g
same,KIDNEY_TOTAL,9 h,1.8 g
same,LIVER,9 h,7.5 g
same,A/G,9 h,2.3
same,ALP,9 h,844.2 IU/L
same,ALT,9 h,32.6 IU/L
same,AST,9 h,64.2 IU/L
same,BUN,9 h,10.6 mg/dL
same,CRE,9 h,0.4 mg/dL
same,Ca,9 h,10.4 mg/dL
same,Cl,9 h,106.2 meq/L
same,DBIL,9 h,0.024 mg/dL
same,GLC,9 h,176.4 mg/dL
same,IP,9 h,10.6 mg/dL
same,K,9 h,5.3 meq/L
same,LDH,9 h,81.2 IU/L
same,Na,9 h,138.8 meq/L
same,PL,9 h,123.6 mg/dL
same,RALB,9 h,3.8 g/dL
same,TBIL,9 h,0.3 mg/dL
same,TC,9 h,71.2 mg/dL
same,TG,9 h,23.6 mg/dL
same,TP,9 h,5.5 g/dL
same,gamma-GTP,9 h,1.4 IU/L
same,TERMINAL_BW,24 h,200.1 g
same,APTT,24 h,16.6 s
same,Bas,24 h,0%
same,Eos,24 h,0.8%
same,Fbg,24 h,205.2 mg/dL
same,Hb,24 h,13.2 g/dL
same,Ht,24 h,39.7%
same,Lym,24 h,76.6%
same,MCH,24 h,22.1 pg
same,MCHC,24 h,33.2%
same,MCV,24 h,66.7 fL
same,Mono,24 h,8.2%
same,Neu,24 h,14.8%
same,PT,24 h,11.9 s
same,Plat,24 h,112.5 x10_4/uL
same,RBC,24 h,596.4 x10_4/ul
same,Ret,24 h,9.8%
same,WBC,24 h,81.9 x10_2/uL
same,KIDNEY_L,24 h,0.9 g
same,KIDNEY_R,24 h,0.9 g
same,KIDNEY_TOTAL,24 h,1.8 g
same,LIVER,24 h,10.2 g
same,A/G,24 h,2.3
same,ALP,24 h,1007 IU/L
same,ALT,24 h,45.4 IU/L
same,AST,24 h,76.6 IU/L
same,BUN,24 h,17.4 mg/dL
same,CRE,24 h,0.5 mg/dL
same,Ca,24 h,11.1 mg/dL
same,Cl,24 h,105.2 meq/L
same,DBIL,24 h,0.008 mg/dL
same,GLC,24 h,188.6 mg/dL
same,IP,24 h,9 mg/dL
same,K,24 h,4.9 meq/L
same,LDH,24 h,87.6 IU/L
same,Na,24 h,140.2 meq/L
same,PL,24 h,155 mg/dL
same,RALB,24 h,3.9 g/dL
same,TBIL,24 h,0.4 mg/dL
same,TC,24 h,84.2 mg/dL
same,TG,24 h,69.2 mg/dL
same,TP,24 h,5.7 g/dL
same,gamma-GTP,24 h,0.8 IU/L
